Experimental data: patent US12344610B2, “APOL1 inhibitors and methods of use” (Maze Therapeutics, Inc., priority 2022, dated 2025)

Experiments:
Type in all cases: cell-based
APOL1 G2 = target: T1, APOL1 G2 (Homo sapiens, UniProt O14791, DEL388-389); assay: APOL1-mediated calcium transport (calcium influx) assay, HEK T-REx/GCaMP6f/APOL1 G2 K6.3 cells, FLIPR TETRA; conditions: prevention of calcium influx; geometric mean of at least 2 assay runs; † = average of a technical replicate from a single assay run
T1 construct: expressed in transfected cells; host or cells: HEK293 T-REx clonal line stably expressing GCaMP6f (HEK T-REx/GCaMP6f/APOL1 G2 K6.3), doxycycline induced
T1 sequence (O14791 with tags, fused parts or gaps DEL388-389): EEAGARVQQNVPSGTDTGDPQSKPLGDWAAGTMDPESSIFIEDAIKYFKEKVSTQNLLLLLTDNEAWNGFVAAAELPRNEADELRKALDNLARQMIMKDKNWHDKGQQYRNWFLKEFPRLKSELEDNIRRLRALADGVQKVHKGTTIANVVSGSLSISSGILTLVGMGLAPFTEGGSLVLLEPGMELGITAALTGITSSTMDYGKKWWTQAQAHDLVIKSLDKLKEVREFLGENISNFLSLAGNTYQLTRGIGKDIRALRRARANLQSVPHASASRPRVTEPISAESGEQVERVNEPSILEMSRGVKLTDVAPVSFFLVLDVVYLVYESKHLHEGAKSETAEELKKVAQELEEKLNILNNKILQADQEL
Summary of the method: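 A HEK293 T-REx clone stably expressing GCaMP6f had APOL1 G2 induced with doxycycline (20 ng/mL solution added) for 6 h. Cells were then washed into Ca2+-free Tyrode's buffer (pH 7.4) and preincubated with compounds (duplicate 8-point) for 10 min at room temperature. Ca2+ injection to 5 mM final produced FLIPR GCaMP fluorescence, giving AC50 for influx inhibition (geometric mean, ≥2 runs).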

[1] = tested on: HEK293 cells overexpressing APOL1 G2; assay: APOL1 G2 HEK293 cell rescue assay (reversal of cell death caused by overexpression of APOL1); conditions: geometric mean of at least 2 assay runs, † = single assay run
Summary of the method: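 Each compound tested in duplicate wells on one plate per run, with values usually the geometric mean across at least two runs on different days, occasionally from one run only. Read-out: concentration giving half-maximal rescue of APOL1 G2 overexpression-induced death of HEK293 cells.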

[2] = tested on: HEK293 clonal cell line overexpressing APOL1 G1; assay: APOL1 G1 HEK293 cell rescue assay (Example B3); conditions: geometric mean of at least 2 runs, † = single run, ¥ = concentration at 50% rescue estimated (no sigmoidal curve)
Summary of the method: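 Rescue of cell death caused by APOL1 G1 overexpression was measured in a clonal HEK293 line. Compounds were tested in duplicate on one plate, and EC50s were geometric means across at least two runs on different days. Some values are estimated 50%-rescue concentrations where curve fitting failed.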

[3] = Homo sapiens, HEK293, HEK293 overexpressing APOL1 G2
[4] = Homo sapiens, HEK293, HEK293 clonal line overexpressing APOL1 G1
[5] = HEK293 clonal line overexpressing APOL1 G1

SMILES | AC50 (APOL1 G2) [nM] | EC50 [1, 3] [nM] | EC50 [2, 4] [nM] | EC50 ([1]; HEK293 overexpressing APOL1 G2) [nM] | EC50 [2, 5] [nM]
N#Cc1ccc2c(c1)C1(CCN(CCOc3ccc(C4CCCS4(=O)=O)cc3)CC1)C(=O)N2 (stereo not drawn) [Compound 178, 1′-{2-[4-(1,1-dioxo-1λ^6-thiolan-2-yl)phenoxy]ethyl}-2-oxo-1,2-dihydrospiro[indole-3,4′-piperidine]-5-carbonitrile] | 550 | 256 | 1190 |  | 
CC(=O)N1CCc2cc(OCCN3CCC4(CC3)C(=O)Nc3ccc(Cl)cc34)ccc2C1 [Compound 194, 1′-{2-[(2-acetyl-1,2,3,4-tetrahydroisoquinolin-6-yl)oxy]ethyl}-5-chloro-1,2-dihydrospiro[indole-3,4′-piperidin]-2-one] | 600 | 246 | 414 |  | 
COCCN1C(=O)C2(CCN(CCOc3ccc(S(C)(=O)=O)cc3)CC2)c2ccccc21 [Compound 21, 1′-[2-(4-methanesulfonylphenoxy)ethyl]-1-(2-methoxyethyl)-1,2-dihydrospiro[indole-3,4′-piperidin]-2-one] | < 213 | 1270 | > 14400 |  | 
C[C@@H](COc1cc(F)c(S(C)(=O)=O)c(F)c1)N1CCC2(CC1)C(=O)Nc1ccc(C#N)cc12 (single isomer, unassigned) [Compound 213] | 1120 | 189 | 497 |  | 
O=C1CCc2cc(OCCN3CCC4(CC3)C(=O)Nc3ccc(C(F)F)cc34)cnc2N1C1CC(CO)C1 (stereo not drawn) [Compound 316, 5-(difluoromethyl)-1′-[2-({8-[3-(hydroxymethyl)cyclobutyl]-7-oxo-5,6,7,8-tetrahydro-1,8-naphthyridin-3-yl}oxy)ethyl]-1,2-dihydrospiro[indole-3,4′-piperidin]-2-one] | 1150 | 32.7 | 99.4 |  | 
N#Cc1ccc2c(c1)C1(CCN(CCOc3ccc(C4(C(=O)N5CC(F)C5)COC4)cc3)CC1)C(=O)N2 [Compound 252, 1′-(2-{4-[3-(3-fluoroazetidine-1-carbonyl)oxetan-3-yl]phenoxy}ethyl)-2-oxo-1,2-dihydrospiro[indole-3,4′-piperidine]-5-carbonitrile] | 1350 | 471 | ~1800 |  | 
O=C1Nc2ccc(Cl)cc2C12CCN(CCOc1cnc(C3(O)COC3)nc1)CC2 [Compound 429, 5-chloro-1′-(2-{[2-(3-hydroxyoxetan-3-yl)pyrimidin-5-yl]oxy}ethyl)-1,2-dihydrospiro[indole-3,4′-piperidin]-2-one] | 435 | 130 | 200 |  | 
[2H]C([2H])([2H])N1C(=O)C2(CCN(CCOc3cc(F)c4c(c3)CCNS4(=O)=O)CC2)c2cc(Cl)ccc21 [Compound 421, 6-{2-[5-chloro-1-(^2H3)methyl-2-oxo-1,2-dihydrospiro[indole-3,4′-piperidin]-1′-yl]ethoxy}-8-fluoro-3,4-dihydro-2H-1λ^6,2-benzothiazine-1,1-dione] | 564 | 34.5 | 83.3 |  | 
CS(=O)(=O)c1ccc(OCCN2CCC3(CC2)C(=O)Nc2ccc(C#N)cc23)cc1C(F)CF (single isomer, unassigned) [Compound 222, 1′-(2-{3-[(1R or 1S)-1,2-difluoroethyl]-4-methanesulfonyl-phenoxy}ethyl)-2-oxo-1,2-dihydrospiro[in-dole-3,4′-piperidine]-5-carbonitrile] | 783 |  |  | 141 | 605
CC(=O)N1CCc2cc(OCCN3CCC4(CC3)C(=O)N(C)c3ccccc34)ccc2C1 [Compound 58, 1′-{2-[(2-acetyl-1,2,3,4-tetrahydroisoquinolin-6-yl)oxy]ethyl}-1-methyl-1,2-dihydrospiro[indole-3,4′-piperidin]-2-one] | < 320 | 1310 | 2120 |  | 
N#Cc1ccc2c(c1)C1(CCN(CCOc3ccc(C4(C(=O)N5CCC5)COC4)cc3)CC1)C(=O)N2 [Compound 253, 1′-(2-{4-[3-(azetidine-1-carbonyl)oxetan-3-yl]phenoxy}ethyl)-2-oxo-1,2-dihydrospiro[indole-3,4′-piperidine]-5-carbonitrile] | 1220 | 608 | ~4400 |  | 
CS(=O)(=O)c1ccc(OCCN2CCC3(CC2)C(=O)Nc2ccc(Cl)cc23)c(F)c1 [Compound 48, 5-chloro-1′-[2-(2-fluoro-4-methanesulfonylphenoxy)ethyl]-1,2-dihydrospiro[indole-3,4′-piperidin]-2-one] | 567 | 199 | 445 |  | 
CC(C)(O)c1ncc(OCCN2CCC3(CC2)C(=O)Nc2c(I)cc(Cl)cc23)cn1 [Compound 449, 5-chloro-1′-(2-((2-(2-hydroxypropan-2-yl)pyrimidin-5-yl)oxy)ethyl)-7-iodospiro[indoline-3,4′-piperidin]-2-one] | 609 | 102 | 247 |  | 
[2H]C([2H])([2H])N1C(=O)C2(CCN(CCOc3cnc4c(c3)CCC(=O)N4CC(C)(C)O)CC2)c2cc(Cl)ccc21 [Compound 417, 5-chloro-1′-(2-{[8-(2-hydroxy-2-methylpropyl)-7-oxo-5,6,7,8-tetrahydro-1,8-naphthyridin-3-yl]oxy}ethyl)-1-(^2H3)methyl-1,2-dihydrospiro[indole-3,4′-piperidin]-2-one] | 343 | 49.2 | 104 |  | 
CN(C)C(=O)c1ccc(OCCN2CCC3(CC2)C(=O)Nc2ccc(Cl)cc23)cn1 [Compound 51] | 953 | 214 | 1250 |  | 
CS(=O)(=O)c1ccc(OCCN2CCC3(CC2)C(=O)Nc2ccc(C#N)cc23)cc1F [Compound 74, 1′-[2-(3-fluoro-4-methanesulfonylphenoxy)ethyl]-2-oxo-1,2-dihydrospiro[indole-3,4′-piperidine]-5-carbonitrile] | 781 | 167 | 471 |  | 
CS(=O)(=O)C1(c2ccc(OCCN3CCC4(CC3)C(=O)Nc3ccc(C#N)cc34)cc2)CC2(COC2)C1 [Compound 183, 1′-[2-(4-{6-methanesulfonyl-2-oxaspiro[3.3]heptan-6-yl}phenoxy)ethyl]-2-oxo-1,2-dihydrospiro[indole-3,4′-piperidine]-5-carbonitrile] | 1520 | 702 | ~5800 |  | 
CC(c1ccc(OCCN2CCC3(CC2)C(=O)Nc2ccc(Cl)cc23)cc1)S(C)(=O)=O (single isomer, unassigned) [Compound 40, 5-chloro-1′-(2-{4-[(1R) or (1S)-1-methanesulfonylethyl]phenoxy}ethyl)-1,2-dihydrospiro[indole-3,4′-piperidin]-2-one] | 657 |  |  | 72 | 294
CN1Cc2cc(OCCN3CCC4(CC3)C(=O)N(C)c3ccccc34)ccc2C1=O [Compound 30, 1-methyl-1′-{2-[(2-methyl-1-oxo-2,3-dihydro-1H-isoindol-5-yl)oxy]ethyl}-1,2-dihydrospiro[indole-3,4′-piperidin]-2-one] | 409 | 1480 | > 22500 |  | 
[2H]C([2H])(Oc1cnc2c(c1)CCC(=O)N2[C@H]1C[C@](O)(C([2H])([2H])[2H])C1)C([2H])([2H])N1CCC2(CC1)C(=O)Nc1ccc(Cl)cc12 [Compound 462, 5-chloro-1′-[2-({7-oxo-8-[(cis)-3-hydroxy-3-(^2H3)methylcyclobutyl]-5,6,7,8-tetrahydro-1,8-naphthyridin-3-yl}oxy)(1,1,2,2-^2H4)ethyl]-1,2-dihydrospiro[indole-3,4′-piperidin]-2-one] | 943 | 17.8 | 53.4 |  | 
